The text below walks through data of article PMC6271945, “Avicequinone C Isolated from Avicennia marina Exhibits 5α-Reductase-Type 1 Inhibitory Activity Using an Androgenic Alopecia Relevant Cell-Based Assay System” (Molecules, 2014).

The target of experiment [1] is T1, 5α-reductase type 1 (5α-R1) (Homo sapiens, UniProt P18405).
T1 construct: gene SRD5A1
T1 sequence (P18405 1-259): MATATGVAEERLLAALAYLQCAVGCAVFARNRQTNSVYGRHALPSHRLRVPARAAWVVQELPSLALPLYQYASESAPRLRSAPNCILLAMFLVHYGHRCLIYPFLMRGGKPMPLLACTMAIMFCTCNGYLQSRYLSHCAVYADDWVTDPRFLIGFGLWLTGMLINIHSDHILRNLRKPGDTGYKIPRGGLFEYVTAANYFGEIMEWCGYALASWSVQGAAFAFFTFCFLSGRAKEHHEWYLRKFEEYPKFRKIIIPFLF
Kind of experiment: HHDPC cell-based assay of testosterone to […]α-DHT conversion (endogenous […]α-R1), non-radioactive TLC detection.

Experiment [2] deals with T1, 5α-reductase type 1 (5α-R1). Kind of experiment: HHDPC cell-based assay of testosterone to […]α-DHT conversion (endogenous […]α-R1), TLC detection; positive control.

As usually defined, the IC50 is the midpoint of a concentration-inhibition curve.

The structures appear in SMILES notation.

Take `CC(C)(O)c1cc2c(o1)C(=O)c1ccccc1C2=O` [G1, naphtho 2'-(1-hydroxy-1-methylethyl)[2,3-β]furan-1,4-dione]: the IC50 in experiment [1] worked out at 38.8 ± 1.29 µM.
On to `C[C@]12C=CC(=O)N[C@@H]1CC[C@@H]1[C@@H]2CC[C@]2(C)[C@@H](C(=O)Nc3cc(C(F)(F)F)ccc3C(F)(F)F)CC[C@@H]12` [dutasteride], for which the “HHDPC cell-based assay of testosterone to 5α-DHT conversion (endogenous 5α-R1),” value in experiment [2] is “complete inhibition at 0.1 and 0.01 µg/mL; 16.5% at 0.001”.
